Assay [1] has as its system nociceptive thresholds. In kind it is in vivo, rat. To be noted: for Antinociceptive effects of inhibitor alone: icv 50, 250, 500 nmol (fluconazole 250 and 500 nmol), TF or HP; for Antinociception of inhibitor alone: large icv doses (250-500 nmol), 7 – 11 min after administration, TF and HP; for Antagonism of azole-induced antinociception by naltrexone: naltrexone 5 mg/kg i.p. pre-treatment, TF 11 min post-icv azole.

In assay [2] the target is human δ opioid receptor (Homo sapiens, UniProt P41143). Put plainly: Opioid receptor binding, [3H]naltrindole, CHO cell membranes.
human δ opioid receptor, sequence (P41143 whole entry): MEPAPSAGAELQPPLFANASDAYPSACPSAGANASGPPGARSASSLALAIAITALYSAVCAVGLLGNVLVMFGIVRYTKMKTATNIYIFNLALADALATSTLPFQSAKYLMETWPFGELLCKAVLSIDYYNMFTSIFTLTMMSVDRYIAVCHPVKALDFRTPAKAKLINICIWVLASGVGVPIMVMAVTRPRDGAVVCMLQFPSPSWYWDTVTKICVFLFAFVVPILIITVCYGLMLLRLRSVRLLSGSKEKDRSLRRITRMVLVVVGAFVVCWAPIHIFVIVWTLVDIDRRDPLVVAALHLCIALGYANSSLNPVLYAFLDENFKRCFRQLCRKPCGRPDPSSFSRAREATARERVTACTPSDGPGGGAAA
The target of assay [3] is human κ opioid receptor (Homo sapiens, UniProt P41145). Put plainly: Opioid receptor binding, [3H]U69,593, CHO cell membranes.
human κ opioid receptor, sequence (P41145 whole entry): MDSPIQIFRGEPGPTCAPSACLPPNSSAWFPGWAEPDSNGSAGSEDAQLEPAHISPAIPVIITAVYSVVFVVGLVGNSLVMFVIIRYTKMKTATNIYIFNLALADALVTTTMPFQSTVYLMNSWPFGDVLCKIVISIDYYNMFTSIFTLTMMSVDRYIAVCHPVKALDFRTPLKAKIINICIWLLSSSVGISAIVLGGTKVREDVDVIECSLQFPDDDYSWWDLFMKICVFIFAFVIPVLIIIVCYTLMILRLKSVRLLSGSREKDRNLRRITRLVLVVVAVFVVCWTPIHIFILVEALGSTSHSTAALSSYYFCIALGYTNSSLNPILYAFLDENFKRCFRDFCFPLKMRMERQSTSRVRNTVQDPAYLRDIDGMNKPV
In assay [4] the target is T1, cDNA-expressed human CYP2C19 (Homo sapiens, UniProt P33261). The assay is described as follows: biochemical.
T1 sequence (P33261 whole entry): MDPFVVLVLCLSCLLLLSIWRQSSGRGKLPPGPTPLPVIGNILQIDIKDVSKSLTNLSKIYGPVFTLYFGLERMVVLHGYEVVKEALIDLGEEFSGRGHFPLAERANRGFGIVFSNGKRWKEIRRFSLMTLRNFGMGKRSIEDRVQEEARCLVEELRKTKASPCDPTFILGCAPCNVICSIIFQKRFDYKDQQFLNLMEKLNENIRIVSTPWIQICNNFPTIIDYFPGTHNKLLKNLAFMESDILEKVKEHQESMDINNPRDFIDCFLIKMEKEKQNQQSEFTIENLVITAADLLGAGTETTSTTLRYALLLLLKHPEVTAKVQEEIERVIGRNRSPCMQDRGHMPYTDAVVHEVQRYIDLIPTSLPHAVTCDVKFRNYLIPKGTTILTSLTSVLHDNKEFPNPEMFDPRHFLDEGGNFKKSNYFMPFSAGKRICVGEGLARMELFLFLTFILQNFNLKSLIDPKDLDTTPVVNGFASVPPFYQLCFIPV
In assay [5] the test system is improgan antinociception. The class given is in vivo. Conditions: improgan 250 nmol icv, TF.
Assay [6] concerns brain form of heme oxygenase. To be noted: ref Suppl. Table 1; cited from earlier work.
Assay [7] deals with improgan antinociception. The class given is in vivo, mouse. Conditions: for Decrease of average improgan antinociception in Cpr^low vs control mice: improgan 145 nmol icv.
In assay [8] the target is human μ opioid receptor (Homo sapiens, UniProt P35372). The assay is described as follows: Opioid receptor binding, [3H]DAMGO, CHO cell membranes.
human μ opioid receptor, sequence (P35372 whole entry): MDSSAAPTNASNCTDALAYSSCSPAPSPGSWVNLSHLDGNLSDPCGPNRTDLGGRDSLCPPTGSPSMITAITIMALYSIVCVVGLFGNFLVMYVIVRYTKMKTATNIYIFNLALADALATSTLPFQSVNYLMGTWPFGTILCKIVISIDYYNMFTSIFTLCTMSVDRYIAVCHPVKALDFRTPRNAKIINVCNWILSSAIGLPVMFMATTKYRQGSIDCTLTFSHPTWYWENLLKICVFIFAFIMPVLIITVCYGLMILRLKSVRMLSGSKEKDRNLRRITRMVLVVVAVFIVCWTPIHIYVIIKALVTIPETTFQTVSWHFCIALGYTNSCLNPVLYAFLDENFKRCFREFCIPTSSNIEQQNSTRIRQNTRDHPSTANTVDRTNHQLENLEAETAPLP
In assay [9] the target is T1, cDNA-expressed human CYP2C19. Conditions: read-out: Ki CYP2C19; cited from earlier work.
The target of assay [10] is human H3 receptor (Homo sapiens, UniProt Q9Y5N1). In kind it is binding.
human H3 receptor, sequence (Q9Y5N1 whole entry): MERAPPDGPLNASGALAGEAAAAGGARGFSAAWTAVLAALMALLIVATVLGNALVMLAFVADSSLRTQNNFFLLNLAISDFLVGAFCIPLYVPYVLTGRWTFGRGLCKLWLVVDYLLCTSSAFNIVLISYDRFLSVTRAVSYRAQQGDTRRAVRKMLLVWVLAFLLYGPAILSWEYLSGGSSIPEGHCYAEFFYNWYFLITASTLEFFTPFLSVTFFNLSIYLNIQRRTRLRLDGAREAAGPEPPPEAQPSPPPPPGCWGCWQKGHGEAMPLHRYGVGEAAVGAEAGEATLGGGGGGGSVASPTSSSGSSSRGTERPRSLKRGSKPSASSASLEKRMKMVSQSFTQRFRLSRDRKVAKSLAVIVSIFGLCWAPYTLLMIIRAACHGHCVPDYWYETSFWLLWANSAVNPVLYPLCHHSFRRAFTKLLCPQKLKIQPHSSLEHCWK

Read-outs that look alike come from different tables or passages of the source.

As usually defined, the Ki is a measure of affinity in units of concentration, obtained from inhibition or displacement. As for `Clc1ccccc1C(c1ccccc1)(c1ccccc1)n1ccnc1` [Clotrimazole, clotrimazole], in [1], the “Antinociceptive effects of inhibitor alone” value is given as “no significant antinociceptive effects”. The Ki came to 770 ± 25 nM in assay [2], 260 ± 8.7 nM in [3] and 316 nM in assay [4].

As to `OC(Cn1cncn1)(Cn1cncn1)c1ccc(F)cc1F` [Fluconazole, fluconazole], the “Antinociceptive effects of inhibitor alone” value in assay [1] is recorded as “no significant antinociceptive effects”. For the same compound, the “Antagonism of improgan antinociception” value in assay [5] (inhibitor 100 nmol icv) is listed as “nearly-complete antagonism”. Moreover, the “Inhibition of the brain form of heme oxygenase” value in assay [6] is “do not inhibit”.

Consider `CN/C(=N\C#N)NCCCc1c[nH]cn1` [Improgan], for which the “Antinociception in wild-type mice” value in assay [7] (145 nmol icv, 10 - 30 min after administration, tail immersion) was “significant, near-maximal antinociception”. Moreover, the “Decrease of average improgan antinociception in Cpr^low vs control mice” value was determined as 59% in assay [7] (no CC12, 10 min); 37% in assay [7] (no CC12, 20 min); 41% in assay [7] (no CC12, 30 min).

`CC(=O)N1CCN(c2ccc(OCC3COC(Cn4ccnc4)(c4ccc(Cl)cc4Cl)O3)cc2)CC1` (stereo not drawn) [Ketoconazole, ketoconazole]: in assay [1], the “Antinociception of inhibitor alone” value is listed as “notable antinociception”. For the same compound, the “Antagonism of azole-induced antinociception by naltrexone” value (from here on “Antagonism … by naltrexone”) in [1] is “but not that produced by ketoconazole”. Also, the Ki in assay [8], in assay [2] and in [3] was over 10000 nM throughout.

On to `C#CCOc1ccccc1CCCCCC(=O)NS(C)(=O)=O` [MS-PPOH, N-methylsulfonyl-6-(2-propargyloxyphenyl)hexanamide], for which the Ki in [9] is over 10000 nM; in assay [8], over 10000 nM; in assay [10], 22200 nM; in assay [2], over 10000 nM; in [3], over 10000 nM. In addition, the “Attenuation of improgan antinociception” value in assay [5] (inhibitor 30 nmol icv) is listed as “virtually complete attenuation”.

As to `Clc1ccc(COC(Cn2ccnc2)c2ccc(Cl)cc2Cl)c(Cl)c1` (stereo not drawn) [Miconazole, miconazole], the “Antinociception of inhibitor alone” value in assay [1] was “notable antinociception”. Also, the “Antagonism … by naltrexone” value in assay [1] was “did not achieve robust statistical significance”. For the same compound, the Ki in [8] turned out to be 1400 nM; in assay [10], 4470 nM; in assay [2], 590 ± 29 nM; in assay [3] it was 760 ± 120 nM. Besides, the “Antagonism of improgan antinociception” value in assay [5] (inhibitor 10 nmol icv) is “nearly-complete antagonism”.

With `Clc1ccc(CSC(Cn2ccnc2)c2ccc(Cl)cc2Cl)cc1` (stereo not drawn) [Sulconazole, sulconazole], in [1], the “Antagonism … by naltrexone” value was “completely blocked”.
